Several values for one entry are separate records, joined by “and”; a condition that tells them apart may be missing. Equal values may be shown once.
biological target: Nonstructural protein 3 (Zika virus, UniProt A0A024AXB9); assay: Functional biochemical assay to identify treatments for viral infectious disease that targets Zika NS2B-NS3 protease. Utilizing a direct enzyme activity measurement method, reading the fluorescence intensity is used to characterize the relative potency of inhibitors as IC50.; parameters: species or system PRVABC59
Sequence (A0A024AXB9 whole entry): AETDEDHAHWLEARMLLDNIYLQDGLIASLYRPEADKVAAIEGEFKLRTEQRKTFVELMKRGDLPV

Row | Compound | IC50
1 | O=C(O)c1cc(Cl)ccc1S(=O)(=O)NC1CCC(N2CCCCC2=O)CC1 (stereo not drawn) | > 99.5 µM
2 | CN(C)CC[C@H](NC(=O)c1cc(Cl)cc(NC(=O)OCc2ccccc2)c1)c1ccccc1 | > 99.5 µM
3 | CC[C@H]1CCN(C(=O)c2cc(Cl)ccc2NS(=O)(=O)c2ccc(Oc3ccccc3Cl)cc2)C1 | > 99.5 µM
4 | CN1CCC([C@H]2CCCN(C(=O)Nc3ccc4c(c3)CNC4)C2)CC1 | > 25 µM
5 | O=C(Nc1cc(Cl)cc(C(=O)Nc2cccc([C@H]3CCNC3)c2)c1)OCc1ccccc1 | 8.73 µM and 11.6 µM
6 | c1ccc2sc(C3CCN(Cc4n[nH]c5c4CCCC5)CC3)nc2c1 | > 99.5 µM
7 | NCc1nccc(NC(=O)c2cc(Cl)cc(NC(=O)OCc3ccccc3)c2)n1 | > 99.5 µM
8 | c1cncc(C2CC(NCc3n[nH]c4ccccc34)C2)c1 (stereo not drawn) | > 99.5 µM
9 | CCCn1cc2c(C(=O)Nc3ccc4c(c3)CNC4)cc(Cl)cc2n1 | 0.067 µM and 0.036 µM
10 | O=Cc1ccc(F)c(C(=O)N2CCN(C3=NCCCN3)CC2)c1 | > 99.5 µM
11 | O=C(c1cc(Cl)ccc1NS(=O)(=O)c1ccc(Oc2ccccc2Cl)cc1)N1CC[C@H](CO)C1 | > 99.5 µM
12 | O=S(=O)(CCOc1ccccc1)c1nccs1 | > 99.5 µM
13 | COc1ccc(NS(=O)(=O)c2ccc(Cl)cc2C(=O)O)cc1S(=O)(=O)N1CCCC1 | > 99.5 µM
14 | NCc1cccc(NC(=O)[C@@H](NC(=O)OCc2ccccc2)c2ccc(-c3ccc4cn[nH]c4c3)cc2)c1 | 6.07 µM and 5.74 µM
15 | COc1ccc2c(c1)c(C(=O)Nc1cccc(CN)c1)c(C)n2C1CCCC1 | > 99.5 µM
16 | O=Cc1ccc(CC(=O)N2C[C@@H](O)[C@H](N3CCOCC3)C2)cc1 | > 99.5 µM
17 | O=C(Nc1cc2c(cc1Br)CNC2)c1cc(F)cc2[nH]ncc12 | 0.048 µM and 0.028 µM
18 | CCn1c(=O)c(N2C[C@H]3CCC[C@H]2C3)nc2ccccc21 | > 99.5 µM
19 | O=C(N[C@@H](C(=O)N[C@H]1CCCNC1)c1ccc(OCc2ccccc2)cc1)OCc1ccccc1 | > 99.5 µM
20 | Cc1c(C(=O)Nc2cccc(-n3nn[nH]c3=O)c2)cc(C2CC2)n1C | > 99.5 µM
21 | NC1(c2cccc(NS(=O)(=O)c3ccc(Oc4ccccc4Cl)cc3)c2)CCC1 | > 99.5 µM

Row | Compound | IC50
22 | O=C(O)c1cc(Cl)ccc1NCc1ccc(Oc2ccccc2Cl)cc1 | > 99.5 µM
23 | O=C(Nc1ccc2c(c1)CNC2)N1CC(F)(F)CC2(CCC2)C1 | > 25 µM
24 | CCCc1sc(C(=O)Nc2cccc(-c3nnn[nH]3)c2)cc1CC | > 99.5 µM
25 | O=C(Nc1cc(Cl)cc(C(=O)Nc2cccc(C3CCNCC3)c2)c1)OCc1ccccc1 | 13.2 µM and 12.5 µM
26 | COC(=O)[C@H](NC(=O)OC(C)(C)C)c1ccc(-c2csc(C)c2)cc1 | > 99.5 µM
27 | CN(C)Cc1cc(NC(=O)[C@H](NC(=O)OCc2ccccc2)c2ccc(OCc3ccccc3)cc2)sn1 | > 99.5 µM
28 | CCn1cc(C(=O)O)nc(N2CC[C@@H](CO)C2)c1=O | > 99.5 µM
29 | O=C(c1cccnc1)N1CCN(Cc2c[nH]c3ccccc23)CC1 | > 99.5 µM
30 | O=C(Nc1cc(Cl)cc(C(=O)Nc2cccc3c2OC[C@H](C(=O)O)C3)c1)OCc1ccccc1 | > 99.5 µM
31 | CCn1c(=O)c(N2CCC[C@@H]2Cn2cncn2)nc2ccccc21 | > 99.5 µM
32 | O=C(O)c1cc(Cl)ccc1CNS(=O)(=O)c1ccc(Oc2ccccc2Cl)cc1 | > 99.5 µM
33 | Cc1oc(C2CC2)nc1C(=O)Nc1cc(CCCN)ccn1 | > 99.5 µM
34 | O=C(Nc1cccc(-c2nnn[nH]2)c1)c1ccc(-c2cccnc2)s1 | > 99.5 µM
35 | NC1CCN(C(=O)c2cc(Cl)cc(NC(=O)OCc3ccccc3)c2)CC1 | > 99.5 µM
36 | O=C(Nc1cc(Cl)cc(C(=O)NC[C@@H]2CNCCC2(F)F)c1)OCc1ccccc1 | > 99.5 µM
37 | O=C(Cn1ccnc(N2CC[C@H](CO)C2)c1=O)N1CCOCC1 | > 99.5 µM
38 | O=C(Nc1ccc2c(c1)CNC2)c1cc(F)cc2[nH]c(-c3cccc(F)c3)nc12 | 36 nM (2×) and 22 nM
39 | CN(C)Cc1ccc(C(=O)Nc2cc(Cl)cc(C(=O)NC(C)(C)CO)c2)[nH]1 | > 99.5 µM
40 | NCc1cccc(NC(=O)c2cc(C3CC3)n3nccc3n2)c1 | > 99.5 µM
41 | NCc1cc(S(=O)(=O)Nc2ccc(Cl)cc2C(=O)O)ccc1Oc1ccccc1 | > 99.5 µM
42 | O=C(Nc1cc(Cl)cc(C(=O)NCCc2nnn[nH]2)c1)OCc1ccccc1 | > 99.5 µM

Row | Compound | IC50
43 | C[C@H]1CN(Cc2ccccc2)C[C@@H](C(=O)Nc2cccc(CN)c2)O1 | > 99.5 µM
44 | CCOC(=O)c1[nH]c(C)c(C(=O)Nc2cccc(CN)c2)c1CC | > 99.5 µM
45 | CCn1ccnc(N2C[C@H](c3c[nH]c4ccccc34)[C@H](OC(C)=O)C2)c1=O | > 99.5 µM
46 | Cc1cc(CN)cc(NC(=O)c2cc(C3CC3)n(C)c2C)c1 | > 99.5 µM
47 | Cc1ccc(NC(=O)c2cc(C3CC3)n(C)c2C)cc1CN | > 99.5 µM
48 | Cc1c(C(=O)Nc2ccc([C@@H](C)N)cc2)cc(C2CC2)n1C | > 99.5 µM
49 | CCn1c(=O)c(N2C[C@@H]3CCO[C@]3(COC)C2)nc2ccccc21 | > 99.5 µM
50 | NCc1cccc(NC(=O)[C@]2(NC(=O)OCc3ccccc3)CCOc3ccccc32)c1 | > 99.5 µM
51 | O=C(Nc1cccc(N2CCNCC2)c1)c1cccc2ncccc12 | > 99.5 µM
52 | CC(C)[C@@H]1C(=O)O[C@H]1C(=O)O | > 99.5 µM
53 | O=C(NCC(F)F)[C@H](Nc1ccc2c(c1)CNC2)c1cc(Cl)cc2ccoc12 | 0.028 µM and 0.018 µM
54 | CCn1nccc1-c1cccc([C@@H](NC(=O)OCc2ccccc2)C(=O)Nc2cccc(CN)c2)c1 | > 99.5 µM
55 | CCn1ccnc(N2C[C@@H](O)[C@H](c3c[nH]c4ccccc34)C2)c1=O | > 99.5 µM
56 | CCn1cc(C(=O)N2CCN(C)CC2)nc(N2CC[C@@H](CO)C2)c1=O | > 99.5 µM
57 | O=C1Cc2c(cccc2C(=O)Nc2cnc(OC3CCC3)nc2)N1 | > 25 µM
58 | CC(C)[C@H]1C(=O)O[C@@H]1C(=O)O | > 99.5 µM
59 | CC(C)Nc1nc2ccc(C(=O)Nc3nnnn3-c3ccccn3)cc2[nH]1 | > 99.5 µM
60 | CN(C)CCNC(=O)[C@H](NC(=O)OCc1ccccc1)c1ccc(OCc2ccccc2)cc1 | > 99.5 µM
61 | O=C(Nc1cc2c(c(C3=CCOCC3)c1)CNC2)c1cc(F)cc2[nH]ncc12 | 0.028 µM and 0.025 µM and 0.02 µM
62 | CC[C@H]1CN(C(=O)Nc2ccc3c(c2)CNC3)C[C@@H]1c1ccc(OC)cc1 | > 25 µM
63 | O=S(=O)(Nc1cccc(-c2nnn[nH]2)c1)c1cc(F)cc(Cl)c1 | > 99.5 µM

The remaining lines, values ahead:

Row | IC50 | Compound
64 | 0.494 µM | O=C(NCC(F)F)[C@H](Nc1ccc2c(c1)CNC2)c1cc(Cl)ccc1Sc1ccccc1
65 | 5.98 µM | NCc1cccc(NC(=O)c2cc(Cl)cc3c2CCC3)c1
66 | 5.26 µM | CC(=Cc1cc(Cl)cc(NC(=O)OCc2ccccc2)c1)c1cccc(CN)c1
67 | 46.1 µM | O=C(Nc1cc(Cl)cc(C(=O)NC[C@H]2CC3(CNC3)CO2)c1)OCc1ccccc1
68 | 29.2 µM | O=C(O)c1cc(Cl)ccc1NS(=O)(=O)c1ccc(-c2ccccc2F)cc1
69 | > 25 µM | C[C@H](NC(=O)c1cccc2c1CC(=O)N2)c1ccncc1F
70 | 0.433 µM | N#Cc1cc(Cl)cc([C@H](C#N)Nc2ccc3c(c2)CNC3)c1
71 | 9.2 µM | CNC(=O)[C@H](Nc1cccc(-c2nn[nH]n2)c1)c1cc(Cl)cc2[nH]ncc12
72 | > 25 µM | Cc1[nH]c2ccccc2c1[C@H]1CCN(C(=O)Nc2ccc3c(c2)CNC3)C1
73 | 21.8 µM | CCOc1cccc(-c2ccc(NS(=O)(=O)c3cc(F)c(Cl)cc3C(=O)O)cc2)c1
74 | 54 µM | O=Cc1ccc(N2CCC(C(=O)Nc3ncc(Br)cc3O)CC2)cc1
75 | > 25 µM | O=C(Nc1cccc2c1CNC2)c1cc(Cl)cc2[nH]ncc12
76 | 22.7 µM | C[C@@H](N)c1cccc(NC(=O)c2cc(Cl)cc(NC(=O)OCc3ccccc3)c2)c1
77 | 29.6 µM | CCn1nc(-c2ccccc2)cc1NS(=O)(=O)c1ccc(Cl)cc1C(=O)O
78 | 0.187 µM | CCc1nc2c(C(=O)Nc3ccc4c(c3)CNC4)cc(Br)cc2[nH]1
79 | 23.3 µM | O=C(Nc1ccc2c(c1)CNC2)c1c[nH]c2ncc(F)cc12
80 | > 25 µM | O=C(Nc1ccc2c(c1)CNC2)c1cc(Cl)cc2[nH]c(-c3cn[nH]c3)cc12
81 | 13.4 µM | O=C(Nc1ccc2c(c1)CNC2)c1cc(Br)cc2cccnc12
82 | > 25 µM | CC(=O)N1CCCc2cc(NC(=O)c3cc(C4CC4)n(C)c3C)ccc21
83 | > 25 µM | Cn1nc(C(=O)Nc2cc(-c3cccnc3)ccn2)cc1C1CC1

Row | IC50 | Compound
84 | > 25 µM | Cc1[nH]c(-c2ccccc2)cc1C(=O)Nc1cc(-c2cccnc2)ccn1
85 | 15 µM | NCc1cc(NC(=O)c2cc(Cl)cc(NC(=O)OCc3ccccc3)c2)cc(-c2csc(CC(=O)O)c2)c1
86 | 34.1 µM | FC(F)(F)Oc1cc(Cl)cc2c(Cc3ccc(-c4nnn[nH]4)cc3)c[nH]c12
87 | 0.163 µM | CN1CCC[C@H](c2nc3c(C(=O)Nc4ccc5c(c4)CNC5)cc(F)cc3[nH]2)C1=O
88 | 5.12 µM | NCc1ccc([C@H]2C[C@@H]2c2cc(Cl)cc(NC(=O)OCc3ccccc3)c2)cc1
89 | > 25 µM | NCc1cc(NC(=O)c2cc(Cl)cc(NC(=O)OCc3ccccc3)c2)cc(-c2ccc(OCC(=O)O)nc2)c1
90 | 6.87 µM | O=C(Nc1cc(Cl)cc([C@H]2CN(Cc3ccccc3)C[C@@H]2c2cccc(-c3nn[nH]n3)c2)c1)OCc1ccccc1
91 | 0.129 µM | O=C(Nc1ccc2c(c1)CNC2)c1cccc2[nH]ncc12
92 | 52.4 µM | O=C(Nc1cc(Cl)cc(N[C@H](C#CCO)c2ccc(-c3nn[nH]n3)cc2)c1)OCc1ccccc1
93 | 6.42 µM | NCc1cccc(NC(=O)[C@@H](NC(=O)OCc2ccccc2)c2ccc(-c3cccc4nonc34)cc2)c1
94 | 7.49 µM | CC1(C)C(=O)Nc2ccc(C(=O)Nc3ccc4c(c3)CNC4)cc21
95 | 79.1 µM | CC[C@H](Cc1nn[nH]n1)c1ccc(N[C@H](C(=O)NC)c2cc(Cl)cc(NC(=O)OCc3ccccc3)c2)cc1
96 | 3.94 µM | Cc1cc(-c2ccc([C@@H](NC(=O)OCc3ccccc3)C(=O)Nc3cccc(CN)c3)cc2)cs1
97 | 15.8 µM | Cc1c(C(=O)Nc2ccc3c(c2)CNC3)cc(C2CC2)n1C
98 | 2.01 µM | O=C(Nc1ccc2c(c1)CNC2)c1ccc2[nH]ncc2c1
99 | 0.37 µM | O=C(Nc1ccc2c(c1)CCNCC2)c1cc(Cl)cc2[nH]ncc12
100 | 10.7 µM | NC[C@H]1CC[C@@H](NC(=O)c2cc(Cl)cc3[nH]ncc23)CC1
101 | > 25 µM | Cc1c(C(=O)Nc2cc(C(=O)N3CC(C(N)=O)C3)ccn2)cc(C2CC2)n1C
102 | 5.86 µM | NCc1cc(F)cc(NC(=O)c2cc(Cl)cc(NC(=O)OCc3ccccc3)c2)c1
103 | 58.7 µM | Cc1ccc(-c2nnn[nH]2)cc1NC(=O)c1cc(Cl)cc(NC(=O)OCc2ccccc2)c1

Reference: ChEMBL document CHEMBL5604062, “ASAP - ZIKV NS2B-NS3 protease fluorescence dose response” (2024)
